The results in this text go back to patent US7348427B2, “Antipathogenic benzamide compounds” (Genesoft Pharmaceuticals, Inc., priority 2001, dated 2008).

The subject of test [1] is Bacillus cereus (ATCC 11778). The experiment in a line: MIC, NCCLS broth microdilution assay. The format is cell-based. As to conditions: A = B. cereus ATCC 11778. Put shortly:
(§1)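 MIC determined by broth microdilution in microtiter plates per NCCLS documents M7-A4, M11-A4 (1997) and M27-T (1995). Antifungal testing against the yeast followed the method recommended in the Manual of Clinical Microbiology (1995).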

The subject of test [2] is Enterococcus faecium (ATCC 51559, a vancomycin resistant strain (VRE)). Put plainly: MIC, NCCLS broth microdilution assay. The format is cell-based. The settings on record: D = E. faecium ATCC 51559. Put shortly: as §1
For test [3], the system named is Staphylococcus aureus (ATCC 13709, a methicillin sensitive strain (MSSA)). Put plainly: MIC, NCCLS broth microdilution assay. Format: cell-based. As to conditions: E = S. aureus ATCC 13709. Put shortly: as §1
The test system of test [4] is Staphylococcus aureus (ATCC 27660, a methicillin resistant strain (MRSA)). Put plainly: MIC, NCCLS broth microdilution assay. Format: cell-based. As to conditions: F = S. aureus ATCC 27660. An outline of the steps: as §1
The test system of test [5] is Staphylococcus epidermidis (ATCC 12228). The experiment in a line: MIC, NCCLS broth microdilution assay. The format is cell-based. The settings on record: G = S. epidermidis ATCC 12228. Put shortly:
as §1

For test [6], the system named is Streptococcus pneumoniae (ATCC 51422, a penicillin resistant strain (PRSP)). Put plainly: MIC, NCCLS broth microdilution assay. The format is cell-based. As to conditions: I = S. pneumoniae ATCC 51422. Put shortly:
as §1

The subject of test [7] is Candida albicans (ATCC 38247). The experiment in a line: Antifungal MIC assay. Format: cell-based. The settings on record: B = C. albicans ATCC 38247. An outline of the steps: as §1
Test [8] deals with methicillin resistant Staphylococcus aureus ATCC 33591. Put plainly: Murine neutropenic thigh model. Format: in vivo. The settings on record: neutropenic female CF1 mice, 6 hr after treatment. As for the experimental part: A S. aureus ATCC 33591 culture was grown to log phase overnight and diluted in phosphate buffered saline (pH 7.2) to an optical density of about 0.1 at 600 nm, giving an approximate concentration of 10^8 cfu/mL. The suspension was diluted 1:100 in phosphate buffered saline (pH 7.2) for a final concentration of 10^6 cfu/mL.
Outbred female CF1 mice (approx. 20 gram body weight) were rendered neutropenic by treatment with cyclophosphamide (200 mg/kg body weight, intraperitoneal injection) at 2 and 4 days prior to inoculation. Groups of 5 mice were inoculated with 0.05 mL of the bacteria (approx. 10^6 cfu/mL) into the anterior thigh. Each group was treated intravenously two hours post infection with vehicle (phosphate buffered saline) or test compound. The mice were sacrificed at either 6 or 24 hrs after treatment and thighs were collected aseptically. Each thigh was weighed, placed into sterile saline, and homogenized. The tissue homogenates were diluted appropriately for plating on agar plates. Colony counts were recorded (cfu/gram) and compared to control groups.
In vivo efficacy was shown by a decrease in colony count (log cfu/gram of tissue) in the compound-treated animals when compared against the colony count in animals given only the vehicle.

The subject of a further test is E. faecalis ATCC 29212. The experiment in a line: MIC, NCCLS broth microdilution assay. The format is cell-based, Enterococcus faecalis. The settings on record: C = E. faecalis ATCC 29212. Put shortly:
(§2)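 Broth microdilution per NCCLS M7-A4 (1997) guidelines; MIC recorded as minimal inhibitory concentration.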

The next test has as its system S. pneumoniae ATCC 49619. Put plainly: MIC, NCCLS broth microdilution assay. The format is cell-based, Streptococcus pneumoniae. As to conditions: H = S. pneumoniae ATCC 49619. An outline of the steps: as §2
Where [9] appears, read: 25 mg/kg intravenously two hours post infection.
Setting [10] is: 50 mg/kg intravenously two hours post infection.

Consider `Cn1cc(NC(=O)c2cc(NC(=O)c3cc(NC(=O)c4ccc(F)cc4F)c[nH]3)cn2C)cc1C(=O)NCCN1CCCCC1` [Compound A-4], for which the “Minimum Inhibitory Concentration (MIC)” value in test [1], in test [2], in test [3], in [4], in test [5] and in test [6] was “+++ (+++ = MIC ≦ 4)” each time. Also, the “Minimum Inhibitory Concentration (MIC)” value is reported as “++ (++ = 4 < MIC < 12)” in test [7], “+ (+ = 12 ≦ MIC ≦ 32)” with E. faecalis ATCC 29212 and “+++ (+++ = MIC ≦ 4)” in the test on S. pneumoniae ATCC 49619. For the same compound, the “Colony Count (log cfu/gram) Compound” value was 5.75 log cfu/gram in [8] (setting [9]) and 4.99 log cfu/gram in test [8] (setting [10]).
Turning to `Cn1cc(NC(=O)c2cc(NC(=O)c3cc(NC(=O)c4ccc(Cl)cc4F)c[nH]3)cn2C)cc1C(=O)NCCN1CCC(F)CC1` [Compound A-26], the “Minimum Inhibitory Concentration (MIC)” value was “+++ (+++ = MIC ≦ 4)” in test [1]; “+++ (+++ = MIC ≦ 4)” in [3]; “+++ (+++ = MIC ≦ 4)” in [4]; “++ (++ = 4 < MIC < 12)” in [7]; “+++ (+++ = MIC ≦ 4)” in the test with E. faecalis ATCC 29212; “+++ (+++ = MIC ≦ 4)” in the test with S. pneumoniae ATCC 49619. Moreover, the “Colony Count (log cfu/gram) Compound” value in test [8] (setting [9]) amounted to 6.37 log cfu/gram; in [8] (setting [10]) it was 5.34 log cfu/gram.
`Cn1cc(NC(=O)c2cc(NC(=O)c3cc(NC(=O)c4ccc(Cl)cc4F)cn3C)cn2C)cc1C(=O)NCCN1CCOCC1` [Compound B-47]: the “Minimum Inhibitory Concentration (MIC)” value was “+++ (+++ = MIC ≦ 4)” in test [1]; “+++ (+++ = MIC ≦ 4)” in test [2]; “+++ (+++ = MIC ≦ 4)” in test [4]; “+++ (+++ = MIC ≦ 4)” in [5]; “+++ (+++ = MIC ≦ 4)” in [6]; greater than 32 µg/mL in test [7]. Moreover, the “Minimum Inhibitory Concentration (MIC)” value with E. faecalis ATCC 29212 and in the test on S. pneumoniae ATCC 49619 was “+++ (+++ = MIC ≦ 4)” in each case. Also, the “Colony Count (log cfu/gram) Compound” value in test [8] (setting [10]) is 7.53 log cfu/gram.
Regarding `CN(C)CCCNC(=O)c1cc(NC(=O)c2cc(NC(=O)c3cc(NC(=O)c4ccc(Cl)cc4F)cn3C)cn2C)cn1C` [Compound B-50], the “Minimum Inhibitory Concentration (MIC)” value (in test [1]; in test [3]; in test [4]; in test [7]; with E. faecalis ATCC 29212; with S. pneumoniae ATCC 49619) was “+++ (+++ = MIC ≦ 4)” in each case. The “Colony Count (log cfu/gram) Compound” value in [8] (setting [10]) was 6.58 log cfu/gram.
Turning to `Cn1cc(NC(=O)c2cc(NC(=O)c3cc(NC(=O)c4ccc(Cl)cc4)cn3C)cn2C)cc1C(=O)NCCN1CCOCC1` [Compound B-56], the “Minimum Inhibitory Concentration (MIC)” value in test [1] is “+++ (+++ = MIC ≦ 4)”; in test [3], “+++ (+++ = MIC ≦ 4)”; in test [4] it was “+++ (+++ = MIC ≦ 4)”; in test [7], greater than 32 µg/mL; with E. faecalis ATCC 29212, “+++ (+++ = MIC ≦ 4)”; in the test on S. pneumoniae ATCC 49619 it was “+++ (+++ = MIC ≦ 4)”. Also, the “Colony Count (log cfu/gram) Compound” value in test [8] (setting [10]) is 6.38 log cfu/gram.
Turning to `Cn1cc(NC(=O)c2cc(NC(=O)c3cc(NC(=O)c4ccc(C#N)cc4)cn3C)cn2C)cc1C(=O)NCCN1CCOCC1` [Compound B-67], the “Minimum Inhibitory Concentration (MIC)” value in [1] was “+++ (+++ = MIC ≦ 4)”; in test [7], greater than 32 µg/mL; in the test with E. faecalis ATCC 29212 it was “+++ (+++ = MIC ≦ 4)”; in the test with S. pneumoniae ATCC 49619, “+++ (+++ = MIC ≦ 4)”. In addition, the “Colony Count (log cfu/gram) Compound” value in test [8] (setting [10]) worked out at 7.73 log cfu/gram.
In the case of `Cc1cc(NC(=O)c2cc(NC(=O)c3cc(NC(=O)c4ccc(Cl)cc4F)cn3C)cn2CCN2CCOCC2)sn1` [Compound D-8], the “Minimum Inhibitory Concentration (MIC)” value in test [1], in [2], in test [3], in [4], in test [5] and in [6] was “+++ (+++ = MIC ≦ 4)” throughout. Moreover, the entries for the “Minimum Inhibitory Concentration (MIC)” value (in test [7]; in the test on E. faecalis ATCC 29212; in the test on S. pneumoniae ATCC 49619) were greater than 32 µg/mL, “+++ (+++ = MIC ≦ 4)” and “+++ (+++ = MIC ≦ 4)”, respectively.
In the case of `Cc1cc(NC(=O)c2cc(NC(=O)c3cc(NC(=O)c4ccc(Cl)cc4F)c[nH]3)cn2CCN2CCOCC2)sn1` [Compound D-9], the “Minimum Inhibitory Concentration (MIC)” value in test [1], in test [2], in test [3], in test [4], in test [5] and in [6] was “+++ (+++ = MIC ≦ 4)” in each case. Further, the “Minimum Inhibitory Concentration (MIC)” value in [7] was greater than 32 µg/mL; with E. faecalis ATCC 29212, “+++ (+++ = MIC ≦ 4)”; in the test on S. pneumoniae ATCC 49619, “+++ (+++ = MIC ≦ 4)”.
With `Cc1cc(NC(=O)c2cc(NC(=O)c3cc(NC(=O)c4ccc(Cl)cc4F)c[nH]3)cn2CCN2CCCC2)sn1` [Compound D-10], the “Minimum Inhibitory Concentration (MIC)” value is reported as “+++ (+++ = MIC ≦ 4)” in test [1]; “+++ (+++ = MIC ≦ 4)” in [2]; “+++ (+++ = MIC ≦ 4)” in test [3]; “+ (+ = 12 ≦ MIC ≦ 32)” in test [4]; “+++ (+++ = MIC ≦ 4)” in test [5]; “+++ (+++ = MIC ≦ 4)” in [6]. Besides, the “Minimum Inhibitory Concentration (MIC)” value in [7] is given as “++ (++ = 4 < MIC < 12)”; with E. faecalis ATCC 29212 it was “+++ (+++ = MIC ≦ 4)”; in the test with S. pneumoniae ATCC 49619, “+++ (+++ = MIC ≦ 4)”.
Turning to `Cc1cc(NC(=O)c2cc(NC(=O)c3cc(NC(=O)c4ccc(Cl)cc4F)cn3C)cn2CCCN(C)C)sn1` [Compound D-12], the “Minimum Inhibitory Concentration (MIC)” value in test [1] was “+++ (+++ = MIC ≦ 4)”; in [2], “++ (++ = 4 < MIC < 12)”; in [3], “+++ (+++ = MIC ≦ 4)”; in test [4], “+++ (+++ = MIC ≦ 4)”; in test [5] it was “+++ (+++ = MIC ≦ 4)”; in test [6], “+++ (+++ = MIC ≦ 4)”. The “Minimum Inhibitory Concentration (MIC)” value (in test [7]; in the test with E. faecalis ATCC 29212; in the test on S. pneumoniae ATCC 49619) was “+++ (+++ = MIC ≦ 4)” throughout.
In the case of `Cn1cc(NC(=O)c2cc(NC(=O)c3ccc(Cl)cc3F)c[nH]2)cc1C(=O)Nc1cc(C(=O)NCCN2CCCCC2)n(CCN2CCOCC2)c1` [Compound D-13], the “Minimum Inhibitory Concentration (MIC)” value in test [1] is given as “+++ (+++ = MIC ≦ 4)”; in [2], “++ (++ = 4 < MIC < 12)”; in [3] it was “+++ (+++ = MIC ≦ 4)”; in test [4], “+++ (+++ = MIC ≦ 4)”; in test [5], “+++ (+++ = MIC ≦ 4)”; in test [6], “+++ (+++ = MIC ≦ 4)”. The “Minimum Inhibitory Concentration (MIC)” value in test [7] is listed as “+ (+ = 12 ≦ MIC ≦ 32)”; in the test on E. faecalis ATCC 29212, “+++ (+++ = MIC ≦ 4)”; in the test on S. pneumoniae ATCC 49619, “+++ (+++ = MIC ≦ 4)”.
